This note sets out measurements from patent US20220039384A1, “SELECTIVE WEED CONTROL WITH HALAUXIFEN OR 4-AMINO-3-CHLORO-5-FLUORO-6-(4-CHLORO-2-FLUORO-3-METHOXYPHENYL) PYRIDINE-2-CARBOXYLIC ACID OR DERIVATIVES THEREOF IN VINEYARDS OR PERENNIAL CROPS” (Corteva Agriscience LLC, priority 2013, published 2022).

In data set [1] the test system is commercially relevant broadleaf and grass weeds. In words: Pre- and post-emergence weed control, general statement. Type of data set: in vivo. The source says: (§1) Additional examples of application rates for Compound I as a pre-emergence and post-emergence application include 0.25 to 50 g ae/ha, 0.25 to 45 g ae/ha, 0.25 to 40 g ae/ha, 0.25 to 35 g ae/ha, 0.25 to 30 g ae/ha, 0.25 to 25 g ae/ha, 0.25 to 20 g ae/ha, 0.25 to 15 g ae/ha, 0.25 to 10 g ae/ha, 0.25 to 5 g ae/ha, 2.5 to 50 g ae/ha, 5 to 50 g ae/ha, 10 to 50 g ae/ha, 15 to 50 g ae/ha, 20 to 50 g ae/ha, 25 to 50 g ae/ha, 30 to 50 g ae/ha, 35 to 50 g ae/ha, 40 to 50 g ae/ha, 45 to 50 g ae/ha, 5 to 40 g ae/ha, 10 to 40 g ae/ha, 15 to 40 g ae/ha, 20 to 40 g ae/ha, 25 to 40 g ae/ha, 30 to 40 g ae/ha, 35 to 40 g ae/ha, 2.5 to 35 g ae/ha, 2.5 to 30 g ae/ha, 2.5 to 25 g ae/ha, 2.5 to 20 g ae/ha, 2.5 to 15 g ae/ha, 2.5 to 10 g ae/ha, 2.5 to 5 g ae/ha, 5 to 35 g ae/ha, 10 to 30 g ae/ha, 15 to 25 g ae/ha, and 15 to 20 g ae/ha. Further examples of application rates for Compound I as a pre-emergence and post-emergence application include 0.25 g ae/ha, 0.5 g ae/ha, 0.75 g ae/ha, 1 g ae/ha, 1.25 g ae/ha, 1.5 g ae/ha, 1.75 g ae/ha, 2 g ae/ha, 2.25 g ae/ha, 2.5 g ae/ha, 3 g ae/ha, 4 g ae/ha, 5 g ae/ha, 6 g ae/ha, 7 g ae/ha, 8 g ae/ha, 9 g ae/ha, 10 g ae/ha, 12 g ae/ha, 14 g ae/ha, 16 g ae/ha, 18 g ae/ha, 20 g ae/ha, 22 g ae/ha, 24 g ae/ha, 26 g ae/ha, 28 g ae/ha, 30 g ae/ha, 32 g ae/ha, 34 g ae/ha, 36 g ae/ha, 38 g ae/ha, 40 g ae/ha, 42 g ae/ha, 44 g ae/ha, 46 g ae/ha, 48 g ae/ha, and 50 g ae/ha. […]

For data set [2], the system named is grapevines and perennial crops. In words: Crop safety, general statement. Type of data set: in vivo. Particulars: post-emergence application rates of ≤20 g ae/ha; dormant application or spring application directed under the crops.
Source text: as §1

The test system of data set [3] is SETFA (Setaria faberi, giant foxtail). In words: Field trial, post-emergence directed spring application (April), California vineyards: visual weed control. Type of data set: in vivo. Particulars: 35 g ai/ha. An excerpt:
(§2) As used herein, selective pre- and post-emergence control of undesirable vegetation means preventing, reducing, killing, or otherwise adversely modifying the development of the undesirable vegetation in the presence of crop plants with limited adverse effect on the crop plants. For example, a broadleaf weed control of 80% (rated visually) with crop injury of less than or equal to 20% (rated visually) would constitute selective control. In some embodiments the adverse effect on crop plants is limited to less than 10% visually rated crop injury. Visual crop injury is a composite rating accounting for all phytotoxic effects including chlorosis, necrosis, growth inhibition, epinasty, delays in maturity and seed or fruit deformity. Visual weed control is a composite rating accounting for reductions in pest plant biomass and/or stand reduction.
(§3) Small plot research experiments were conducted in Fresno, Calif., USA to evaluate the pre-emergence and post-emergence herbicidal weed control activity and the vines crop tolerance to pre-emergence and post-emergence application of Compound I and Compound II to the weeds. Application water volume of 100 to 187 liters per hectare (L/ha) was used for all experiments. All treatments were applied with a standard small plot carbon dioxide (CO2) backpack sprayer. All treatments were tank-mixed with Crop Oil Concentrate (COC), a well known adjuvant, at 2.34 L/ha. Experimental emulsifiable concentrate (EC) formulations were used for Compounds I and II. The dimethylammonium (DMA) salt of glyphosate was used in all trials. Pindar® GT is a commercial formulation containing a pre-mix of penoxsulam+oxyfluorfen (10+476 grams of active ingredient per liter (g ai/L), respectively). Vine crop stage was dormant (no leaves on the vines during the winter) or early spring growth at the time of Compound I or Compound II application. Generally, weeds were not emerged for the pre-emergence treatments or were at the two to six-leaf stage at the time of the post-emergence herbicide application.
(§4) Tables 1, 2 and 6 provide weed control results from pre-emergence applications of Compounds I and/or II prior to weed emergence; Tables 4, 7 and 8 provide weed control results from post-emergence applications of Compounds I and/or II applied to actively growing weeds; Tables 3 and 5 provide vine response data from pre-emergence and post-emergence applications of Compound I respectively.

In data set [4] the test system is EROCI (Erodium cicutarium, redstem filaree). The data set is described as above. Type of data set: in vivo. The following applies: 35 g ai/ha.
Source text: as §2, §3, §4

Data set [5] deals with PANCA (Panicum capillare, witchgrass). The data set is described as above. Type of data set: in vivo. The following applies: 35 g ai/ha.
Source text: as §2, §3, §4

For data set [6], the system named is MALPA (Malva parviflora, smallflower malva). The data set is described as above. Type of data set: in vivo. The following applies: 35 g ai/ha.
Source text: as §2, §3, §4

The test system of data set [7] is ERIBO (Conyza bonariensis, hairy fleabane). Described as above. Type of data set: in vivo. The following applies: 35 g ai/ha.
Source text: as §2, §3, §4

Data set [8] deals with AGRRE (Agropyron repens, quackgrass). Described as above. Type of data set: in vivo. The following applies: 35 g ai/ha.
Source text: as §2, §3, §4

The next data set deals with VITSS (Vitis spp, grape). Particulars: in vivo. The protocol: as §3, with “herbicide application. […]” for “herbicide application.”

Turning to `COc1c(Cl)ccc(-c2cc(N)c(Cl)c(C(=O)O)n2)c1F` [Compound I, 4-amino-3-chloro-6-(4-chloro-2-fluoro-3-methoxyphenyl)pyridine-2-carboxylic acid], in data set [1] (application rate of 2.5 to 40 g ae/ha, pre-emergence and post-emergence application), the “efficacy on commercially relevant broadleaf and grass weeds” value is given as “highly efficacious”. The “crop injury to grapevines and perennial crops” value in data set [2] is reported as “little to no crop injury”.
In the case of `COc1c(Cl)ccc(-c2nc(C(=O)O)c(Cl)c(N)c2F)c1F` [Compound II, 4-amino-3-chloro-5-fluoro-6-(4-chloro-2-fluoro-3-methoxyphenyl)pyridine-2-carboxylic acid], the “efficacy on commercially relevant broadleaf and grass weeds” value in [1] (application rate of 2.5 to 50 g ai/ha, pre-emergence or post-emergence application) was “highly efficacious”. For the same compound, in data set [2], the “crop injury to grapevines and perennial crops” value is “little to no crop injury”.
Take `COc1cnc(OC)n2nc(NS(=O)(=O)c3c(OCC(F)F)cccc3C(F)(F)F)nc12` [Penoxsulam, reference compound]: the “% Visual Control 60 DAA SETFA” value in data set [3] is 97%. Moreover, the “% Visual Control 60 DAA EROCI” value in [4] is given as 87%. Moreover, the “% Visual Control 60 DAA PANCA” value in [5] is recorded as 85%. The “% Visual Control 60 DAA MALPA” value in [6] was 85%. For the same compound, the “% Visual Control 60 DAA ERIBO” value in data set [7] was 85%. Moreover, in data set [8], the “% Visual Control 60 DAA AGRRE” value stood at 87%. In addition, in the data set on VITSS (Vitis spp, grape), the “VITSS 60 DAA Node Count” value was 20 and the “VITSS 60 DAA Vine Length (cm)” value came to 89 cm.
